The source of these data is patent US20240199676A1, “ANTIVIRAL COMPOUNDS AND METHODS OF MAKING AND USING THE SAME” (Gilead Sciences, Inc., priority 2022, published 2024).

In general, EC50 refers to the concentration that produces a half-maximal response.

Format in all cases: cell-based
Test [1] relates to Human Rhinovirus 14 (HRV14) in H1-HeLa cells. The test is described as follows: H1-HeLa HRV-CTG 384-well Assay (Ex. Y), HRV14. The following applies: Rhinovirus B, 96 h; H1-HeLa cells, HRV14 MOI 1.0, 4 days, Celltiter-Glo; read-out: EC50 H1-HeLa_HRV14_HRV-CTG 384-well Assay (per Ex Y). The source says: (§1) Example Y: H1-HeLa HRV-CTG 384-well Assay
(§2) H1-Hela cell line (ATCC, Manassas, VA, Cat #CRL-1958) was maintained in Dulbecco's […] (DMEM) (Corning, New York, NY, Cat #15-018CM) supplemented with 10% fetal bovine serum (FBS) (Hyclone, Logan, UT, Cat #SH30071-03), and 1× Penicillin-Streptomycin-L-Glutamine (Corning, New York, NY, Cat #30-009-CI). Cells were passaged 2 times per week to maintain sub-confluent densities and were used for experiments at passage 5-30. The Human Rhinovirus 1B (HRV1B) (ATCC, Manassas, VA, Cat #VR-1645) , Human Rhinovirus 14 (HRV14) (ATCC, Manassas, VA, Cat #VR-284), and Human Rhinovirus 16 (HRV16) (ATCC, Manassas, VA, Cat #BR-283) was obtained through ATCC. Viral infection was monitored by determining viability of H1-HeLa cells as described below.
(§3) Test molecules are prepared in 100% DMSO in 384-well polypropylene plates (Greiner, Monroe, NC, Cat #784201) with 8 compounds per plate in grouped replicates of 4 at 10 serially diluted concentrations (1:3). The serially diluted compounds were transferred to low dead volume Echo plates (Labcyte, Sunnyvale, CA, Cat #LP-0200).
(§4) The test compounds were spotted to 384-well assay plates (Greiner, Monroe, NC, Cat#781091) at 200 nL per well using an Echo acoustic dispenser (Labcyte, Sunnyvale, CA). H1-HeLa cells were harvested and suspended in DMEM (supplemented with 2% FBS and 1× Penicillin-Streptomycin-L-Glutamine) and seeded to the pre-spotted assay plates at 5,000 cells per well in 30 μL. HRV1B, HRV14, and HRV16 was diluted in DMEM (supplemented with 2% FBS and 1× Penicillin-Streptomycin-L-Glutamine) at 97.1 million Infectious Units (IU) per mL, 151 million IU per mL and 221 million IU per mL respectively. 10 μL of virus per well was added to the assay plates containing cells and compounds, for an MOI of 0.5, 1.0, and 0.25 respectively. The assay plates were incubated for 4 days at 37° C. and 5% CO2. At the end of incubation, Celltiter-Glo (Promega, Madison, WI, Cat #(Ga7573) was prepared. The assay plates and Celltiter-Glo reagent were equilibrated to room temperature for at least 15 minutes. 40 μL per well of Celltiter-Glo reagent was added and the plates were incubated at room temperature for 15 minutes before reading the luminescence signal on an EnVision multimode plate reader (Perkin Elmer, Waltham, MA). Rupintrivir was used as positive control and DMSO was used as negative control. Values were normalized to the positive and negative controls (as 0% and 100% replication, respectively) and data was fitted using non-linear regression analysis by Gilead's dose response tool. The EC50 value for each compound was defined as the concentration reducing viral replication by 50%.

Test [2] concerns Respiratory syncytial virus recombinant with luciferase (RSV-Luc5) in HEp-2 cells. The test is described as follows: HEp-2 RSV-Luc5 384-well Assay (EC50 RSVFLUC Hep2-384 v2, Ex. V). The following applies: human respiratory syncytial virus, HEp-2, 72 h, read-out: EC50 RSV FLuc Hep-2 384 V2 (per Ex. V). The source says:
Example V: HEp-2 RSV-Luc5 384-well Assay (EC50 RSVFLUC Hep2-384 v2)
HEp-2 cell line was purchased from ATCC (Manassas, VA Cat #CCL-23) and maintained in Dulbecco's […] (DMEM) (Corning, New York, NY, Cat #15-018CM) supplemented with 10% fetal bovine serum (FBS) (Hyclone, Logan, UT, Cat #SH30071-03) and 1× Penicillin-Streptonycin-L-Glutamine (Corning, New York, NY, Cat #30-009-CI). Cells were passaged 2 times per week to maintain sub-confluent densities and were used for experiments at passage 5-20. Respiratory syncytial virus recombinant with luciferase (RSV-Luc5) (≥1 ×107 TCID50/ml) was purchased from Microbiologics (Saint Cloud, MN). Viral replication was determined in HEp-2 cells in the following manner.
Compounds are prepared in 100% DMSO in 384-well polypropylene plates (Greiner, Monroe, NC, Cat #784201) with 8 compounds per plate in grouped replicates of 4 at 10 serially diluted concentrations (1:3). The serially diluted compounds were transferred to low dead volume Echo plates (Labcyte, Sunnyvale, CA, Cat #LP-0200).
The test compounds were spotted to 384-well assay plates (Greiner, Monroe, NC, Cat#781091) at 200 nL per well. HEp-2 cells were harvested and suspended in DMEM (supplemented with 10% FBS and 1× Penicillin-Streptonycin-L-Glutamine) and seeded to the pre-spotted assay plates at 4,000 cells per well in 30 μL. RSV-Luc5 viruses were diluted in DMEM (supplemented with 10% FBS and 1× Penicillin-Streptomycin-L-Glutamine) at 200,000 Infectious Units (IU) per mL and 10 μL per well was added to the assay plates containing cells and compounds, for an MOI=0.5. The assay plates were incubated for 3 days at 37° C. and 5% CO2. At the end of incubation, One-Glo reagent (Promega, Madison, WI, Cat #E6120) was prepared. The assay plates and One-Glo reagent were equilibrated to room temperature for at least 15 minutes. 40 μL per well of One-Glo reagent was added and the plates were incubated at room temp for 15 minutes before reading the luminescence signal on an EnVision multimode plate reader (Perkin Elmer, Waltham, MA). Remdesivir was used as positive control and DMSO was used as negative control. Values were normalized to the positive and negative controls (as 0% and 100% replication, respectively) and data was fitted using non-linear regression analysis by Gilead's dose response tool. The EC50 value for each compound was then determined as the concentration reducing the viral replication by 50%.

Test [3] has as its system Human Rhinovirus 1B (HRV1B) in H1-HeLa cells. The test can be described thus: H1-HeLa HRV-CTG 384-well Assay (Ex. Y), HRV1B. The note with it: Rhinovirus A, 96 h; H1-HeLa cells, HRV1B MOI 0.5, 4 days, Celltiter-Glo; read-out: EC50 H1-HeLa_HRV1B_HRV-CTG 384-well Assay (per Ex. Y).
Source text: as §1, §2, §3, §4

The test system of test [4] is Human Rhinovirus 16 (HRV16) in H1-HeLa cells. The test is described as follows: H1-HeLa HRV-CTG 384-well Assay (Ex. Y), HRV16. The following applies: Rhinovirus A, 96 h; H1-HeLa cells, HRV16 MOI 0.25, 4 days, Celltiter-Glo; read-out: EC50 H1-HeLa_HRV16_HRV-CTG 384-well Assay (per Ex. Y).
Source text: as §1, §2, §3, §4
Background: ATP-based viability assays read luminescence as a measure of living cells.

SMILES strings stand for the structures.

In the case of `CC(C)(C)CC(=O)OC[C@@]1(C#N)O[C@@H](c2ccc3c(N)ncnn23)[C@H](O)[C@@H]1O` [Compound 13, ((2R,3S,4R,5S)-5-(4-aminopyrrolo[2,1-f][1,2,4]triazin-7-yl)-2-cyano-3,4-dihydroxytetrahydrofuran-2-yl)methyl 3,3-dimethylbutanoate], the EC50 in test [1], in test [2], in test [3] and in test [4] was 50 µM throughout.

As for `Cc1ccc(C(=O)OC[C@@]2(C#N)O[C@@H](c3ccc4c(N)ncnn34)[C@H](O)[C@@H]2O)cc1` [Compound 14, ((2R,3S,4R,5S)-5-(4-aminopyrrolo[2,1-f][1,2,4]triazin-7-yl)-2-cyano-3,4-dihydroxytetrahydrofuran-2-yl)methyl 4-methylbenzoate], the EC50 turned out to be 8.17 µM in test [1], 22 µM in test [2], 9.8 µM in test [3] and 23.8 µM in test [4].

Turning to `CC1(C(=O)OC[C@@]2(C#N)O[C@@H](c3ccc4c(N)ncnn34)[C@H](O)[C@@H]2O)CC1` [Compound 15, ((2R,3S,4R,5S)-5-(4-aminopyrrolo[2,1-f][1,2,4]triazin-7-yl)-2-cyano-3,4-dihydroxytetrahydrofuran-2-yl)methyl 1-methylcyclopropane-1-carboxylate], the EC50 worked out at 50 µM in test [1], 31.6 µM in test [2], 22.8 µM in test [3] and 31.1 µM in test [4].

As for `N#C[C@]1(COC(=O)CC2CCC2)O[C@@H](c2ccc3c(N)ncnn23)[C@H](O)[C@@H]1O` [Compound 16, ((2R,3S,4R,5S)-5-(4-aminopyrrolo[2,1-f][1,2,4]triazin-7-yl)-2-cyano-3,4-dihydroxytetrahydrofuran-2-yl)methyl 2-cyclobutylacetate], the EC50 in test [1] was determined as 6.99 µM; in test [2], 18.3 µM; in test [3] it was 3.14 µM; in test [4], 7.15 µM.

Consider `CC1(C)CC(C(=O)OC[C@@]2(C#N)O[C@@H](c3ccc4c(N)ncnn34)[C@H](O)[C@@H]2O)C1` [Compound 17, ((2R,3S,4R,5S)-5-(4-aminopyrrolo[2,1-f][1,2,4]triazin-7-yl)-2-cyano-3,4-dihydroxytetrahydrofuran-2-yl)methyl 3,3-dimethylcyclobutane-1-carboxylate], for which the concentration for a half-maximal effect (EC50) in test [1] came out at 7.83 µM; in test [2] it was 19.7 µM; in test [3], 3.2 µM; in test [4], 7.57 µM.

Turning to `N#C[C@]1(COC(=O)C2CCCC2)O[C@@H](c2ccc3c(N)ncnn23)[C@H](O)[C@@H]1O` [Compound 18, ((2R,3S,4R,5S)-5-(4-aminopyrrolo[2,1-f][1,2,4]triazin-7-yl)-2-cyano-3,4-dihydroxytetrahydrofuran-2-yl)methyl cyclopentanecarboxylate], the EC50 in test [1] was 6.93 µM; in test [2], 23.3 µM; in test [3], 3.03 µM; in test [4] it was 8.01 µM.

Take `N#C[C@]1(COC(=O)C2CCCCC2)O[C@@H](c2ccc3c(N)ncnn23)[C@H](O)[C@@H]1O` [Compound 19, ((2R,3S,4R,5S)-5-(4-aminopyrrolo[2,1-f][1,2,4]triazin-7-yl)-2-cyano-3,4-dihydroxytetrahydrofuran-2-yl)methyl cyclohexanecarboxylate]: the EC50 in test [1] stood at 6.84 µM; in test [2], 18 µM; in test [3], 4.11 µM; in test [4] it was 9.23 µM.

On to `CC(C)C(=O)OC[C@@]1(C#N)O[C@@H](c2ccc3c(N)ncnn23)[C@H](OC(=O)C(C)C)[C@@H]1OC(=O)C(C)C` [Compound 20, (2R,3S,4S,5S)-5-(4-aminopyrrolo[2,1-f][1,2,4]triazin-7-yl)-2-cyano-2-((isobutyryloxy)methyl)tetrahydrofuran-3,4-diyl bis(2-methylpropanoate)], for which the EC50 in test [1] worked out at 12.8 µM; in test [2], 29.9 µM; in test [3] it was 9.63 µM; in test [4], 50 µM.

For the molecule `CC(C)C(=O)O[C@H]1[C@H](c2ccc3c(N)ncnn23)O[C@](C#N)(COC(=O)c2ccccc2)[C@H]1O` [Compound 22, ((2R,3S,4R,5S)-5-(4-aminopyrrolo[2,1-f][1,2,4]triazin-7-yl)-2-cyano-3-hydroxy-4-(isobutyryloxy)tetrahydrofuran-2-yl)methyl benzoate], the EC50 in test [1] stood at 15.9 µM; in test [2], 32.1 µM; in test [3] it was 12.8 µM; in test [4], 33.1 µM.

`CC(=O)OC[C@@]1(C#N)O[C@@H](c2ccc3c(NC(=O)C(C)C)ncnn23)[C@H](O)[C@@H]1O` [Compound 23, ((2R,3S,4R,5S)-2-cyano-3,4-dihydroxy-5-(4-isobutyramidopyrrolo[2,1-f][1,2,4]triazin-7-yl)tetrahydrofuran-2-yl)methyl acetate]: the EC50 was determined as 49.8 µM in test [1], 33.1 µM in test [2], 33.5 µM in test [3] and 50 µM in test [4].

Take `CC1(C(=O)OC[C@@]2(C#N)O[C@@H](c3ccc4c(N)ncnn34)[C@H](O)[C@@H]2O)CCC1` [Compound 24, ((2R,3S,4R,5S)-5-(4-aminopyrrolo[2,1-f][1,2,4]triazin-7-yl)-2-cyano-3,4-dihydroxytetrahydrofuran-2-yl)methyl 1-methylcyclobutane-1-carboxylate]: the EC50 in test [1] turned out to be 6.34 µM; in test [2], 12 µM; in test [3], 3.43 µM; in test [4], 8.9 µM.
